Measured values as given in publication PMC12748266, “Testing antimicrobial peptides inhibiting protein synthesis in living E. coli and K. pneumoniae using bio-orthogonal non-canonical amino-acid tagging” (Frontiers in Microbiology, 2025).
No end group written: not given here.

Test system: K. pneumoniae ribosomes
Test: In vitro translation assay (PURExpress, firefly luciferase) with purified ribosomes
Assay type: biochemical, K. pneumoniae ATCC 13883
Conditions: peptide at 5 μM, 30 min, 32 °C, luciferase luminescence, water control = 100%
Description: The ribosomes used in this study were purified as described previously ([Di Stasi et al., 2025]). Briefly, to purify the 70S ribosomes of ESKAPE pathogens, the bacterial strains E. faecium ATCC 19434 S. aureus ATCC 25923, K. pneumoniae ATCC 13883, A. baumannii ATCC 19606, P. aeruginosa ATCC 27853 and E. cloacae ATCC 13047 were grown in 2 L of Luria-Bertani (LB) medium, at 37 °C, until the mid-log phase was reached. After centrifugation at 7,000 rpm (12,000 × g) for 15 min at 20 °C (JLA rotor 8.1000), the bacterial pellet was resuspended in 50 mL of saline (0.9% w/v NaCl) and re-centrifuged at 15,000 rpm (27,000 × g) for 10 min at 20 °C (JA rotor 25.50). […] Finally, the solution was cleared of the last remaining impurities by centrifugation at 15,000 rpm (18,000 × g) for 15 min at 4 °C, and the ribosomes subjected to quantification by Nanodrop (A260). […]
The in vitro translation assay was performed by using the Δ ribosome from the E. coli PURExpress system New England Biolabs (NEB), as reported previously ([Di Stasi et al., 2025]; [Raulf et al., 2025]). […] Finally, 40 μL of luciferase assay substrate solution were added to the wells (Promega, E1501), and the luminescence measured using a plate reader (Tecan Infinite 200 PRO). The negative control of the test was nuclease-free water in place of the antibiotic, whose values were used to normalize the absolute luminescence values of the samples. […]

## RRIRPRPPRLPRPRPR [Bac7(1–16)]
  Inhibition of in vitro protein synthesis: 90%
